The structures appear in SMILES notation. “Also recorded” adds a separate entry of the source. Like-named read-outs stand apart in the source and are kept apart here.

In data set [1] the target is T1, interaction between HPV-16 E6 and E6AP (Human papillomavirus type 16, UniProt P03126).
T1 construct: made in house; host or cells: E. coli BL21
As to the kind of experiment: biochemical. Type of data set: binding. The settings on record: for Emax: read-out: Maximal Inhibition; for activity and potency in E6/E6AP binding assay (in words): SAR library, initial 5-point dose range 12.3 µM to 1 mM. Here is the method: To characterize potential E6 inhibitors, a robust in vitro assay was developed to measure the interaction between HPV-16 E6 and E6AP. […] The core 70 amino acids of the E6 binding region of E6AP (residues 371-440) was fused to bacterial alkaline phosphatase (BAP) in the MY101 vector [40]. […] Binding efficiency was determined from the intensity of BAP activated chemiluminescence remaining in each well.
Kinetic analysis was performed to characterize the protein-protein interaction inherent in this assay.
The collection of 72 available structural-lead compounds was tested in the filter-plate based in vitro E6-E6AP binding assay. […] Compounds that disrupted the Flag-BAP interaction with the same potency as the HPV-16 E6 and E6AP interaction were classified as non-specific and eliminated from further analysis. […]
(§1) Pre-Block - 96-well filter plates were prepared (0.2 µm BioTrace NT, Pall). 100µL of blocking buffer (100 mM Tris pH 8.0, 100 mM NaCl, 0.1% milk) was added per well. Plates were blocked for 1 hr at RT on an orbital shaker. Buffer was removed by vacuum filtration using a vacuum manifold. GST-E6 Bead addition – GST-E6 beads were prepared at 5µg/mL in GST-E6 bead buffer (100 mM Tris pH 8.0, 100 mM NaCl, 0.1% milk, 2.5 mM DTT). 100µL of GST-E6 bead mix was added per well and incubated for 1 hr at 4°C. Buffer was removed by vacuum filtration. […] 48 µL of each reagent was added per well. For drug assay, 2µL of compound was added to each well and mixed thoroughly. […] Plates were incubated for 1-3 hours at RT on an orbital shaker. Buffer was removed by vacuum filtration. Plates were washed on the vacuum manifold, first with 200 µL buffer (100 mM Tris pH 8.0, 100 mM NaCl, 1 mM DTT), and twice more with 100µL lysis buffer without DTT. Plates were cleared and dried with on the vacuum manifold. Assay – Immunostar assay reagent was prepared and equilibrated to RT prior to addition. 60 µL of Immunostar-AP assay reagent was added, the BAP activity was allowed to develop for 10 minutes and the plates were read on a Wallace Luminometer. BAP activity was measured as relative light units (RLU) on a luminometer using the Immunostar-AP substrate (BioRad).

Data set [2] concerns HPV-16 E6 mediated p53 degradation. Briefly: in vitro HPV-16 E6 mediated p53 degradation assay. Type of data set: biochemical. The procedure: In vitro expressed p53 was incubated in rabbit reticulocyte lysate in the presence or absence of in vitro expressed HPV16 E6. p53 levels were reduced in reaction containing E6 proteins (Figure 8 ).
Control reactions (no DNA, p53 alone) were incubated with 1 µL wheat germ extract and 2% DMSO in reaction buffer. In vitro translated p53 and rabbit reticulocyte lysate (RRL, Promega) were added to all reactions except the no DNA control reaction to which wheat germ extract was added instead of p53. Reactions were incubated for 3 hrs at 30°C and stopped by addition of 6X reducing SDS sample buffer and heating at 95°C for 5 min. Each reaction was loaded onto a 10% SDS-PAGE gel and transferred onto PVDF (0.45 µm). p53 and 16E6 were visualized using monoclonal p53 (Pab1801, 1:1000), monoclonal 16E6 (813, Arbor Vita Corporation, 1:4000) antibody and anti-mouse HRP-labeled secondary antibody (1:2000, Sigma-Aldrich).

Another data set concerns the target T2, MBP-E6 (Human papillomavirus type 16, UniProt P03126).
T2 construct: made in house; host or cells: E. coli BL21DE(3)
As to the kind of experiment: thermal shift (Sypro Orange) assay. Type of data set: binding, HPV-16. As to conditions: versus DMSO; for effect on Tm of MBP-E6: 5-150 µM tested. The procedure:
A thermal shift assay was used to assess compound binding to HPV E6. In this reaction, protein denaturation is measured by an increase in fluorescence from Sypro Orange as it binds to the newly exposed hydrophobic surfaces on the protein [48]. A protein stability curve is created as a measure of the rate of protein unfolding. The relative fluorescence is plotted against temperature and the melting temperature (Tm) is determined by calculating the temperature of peak fluorescence. Ligand binding can stabilize the protein and increase the Tm. The thermal profile of MBP-E6 proteins was investigated to determine if the flavonoid derivatives could stabilize MBP-E6 protein structure during heat-induced unfolding. […] The change in Tm (∆Tm) was plotted for each compound and compared to DMSO (Figure 10F,G ).
MBP-16E6 DNA, a kind gift from G. Travé [58], was transformed into BL21DE(3) E. coli. Protein expression was performed by inoculation of a 1 mL starter culture in 100 mL of Turbo-Broth containing 0.2 % lactose, 0.05% glucose and 0.6% glycerol at 20°C for 24 hrs. Cells were lysed in 50 mM Tris HCl pH 6.8, 300 mM NaCl, 0.1 % (v/v) NP-40, 2 mM DTT and 1x protease inhibitor cocktail (EDTA-free, Roche) and sonicated as described before. Cell lysate was cleared by centrifugation at 15000xg, 4°C for 30 min and equilibrated with amylose resin beads (New England Biolabs, Inc.) by inversion for 3 hrs at 4°C. Bound beads were washed one time in lysis buffer and four times with wash buffer (50 mM Tris-HCl pH 6.8, 400 mM NaCl, 2 mM DTT, 1x protease inhibitor cocktail). Bound MBP-E6 proteins were eluted using a final concentration of 20 mM maltose in 5 bed volumes of wash buffer. All steps were performed at 4°C. Protein concentration was measured by BCA (BioRad). Thermostability of MBP-E6 proteins was analyzed at a final concentration of 1 µM in reaction buffer (50 mM TrisHCl pH 6.8, 400 mM NaCl, 2 mM DTT). MBP-E6 proteins were equilibrated with CAF-8 (5 µM-150 µM), CAF-24 (5 µM-150 µM), CAF-26 (5 µM-150 µM) or DMSO for 30 min in reaction buffer. Sypro Orange, a hydrophobic fluorescent dye, was added at the end of the incubation period at a final concentration of 5X. The final DMSO concentration (1.8% v/v) was kept constant across the concentration range. Fluorescence was measured using the FRET channel of CFX96 Real-Time PCR thermal cycler (BioRad) over a temperature range of 25°C to 95°C. Temperature increments were set to 0.5°C for 30 sec followed by plate reading. Melt curves were determined in triplicate and repeated four times. Melt curves represent the relative fluorescence of the 1st derivative of four experiments. Melting temperature (Tm) was calculated by CFX manager software. The average melting temperature of the triplicate was used to calculate the ∆Tm for each experiment. ∆Tm values are expressed as the change vs. DMSO.

Data set [3] deals with interaction between anti-FLAG antibody and the FLAG epitope in the E6AP-BAP fusion. Briefly: FLAG/BAP specificity filter binding assay. The procedure: The collection of 72 available structural-lead compounds was tested in the filter-plate based in vitro E6-E6AP binding assay. Compounds were tested twice at concentrations of 10, 50, and 100 µM. […] Compounds that disrupted the Flag-BAP interaction with the same potency as the HPV-16 E6 and E6AP interaction were classified as non-specific and eliminated from further analysis.
Figure 3 Activity of flavonoids in the in vitro binding assay. Compounds were tested in vitro for the ability to disrupt the E6-E6AP interaction. […] Percent inhibition was determined by the amount of BAP activity remaining in the well after washing and normalized to DMSO. Data was plotted by linear regression for single site binding using Prism (n=3, S.E.M.).
(§2) This interaction between E6 and hDlg occurs at the C-terminus of E6 and is independent of the interaction between E6 and the charged leucine helix in E6AP [21, 22].

The target of data set [4] is T3, interaction between GST-E6 and three PDZ domains of hDlg fused to BAP (hDlg-BAP) (Human papillomavirus type 16, UniProt P03126).
T3 construct: made in house; host or cells: E. coli BL21
As to the kind of experiment: E6/hDlg-BAP specificity filter binding assay. The arrangement: species or system HPV-16. Here is the method:
as §2
as §1, with “Plates were cleared and dried with on the vacuum manifold. Assay – Immunostar assay reagent was prepared and equilibrated to RT prior to addition.” left out

Data set [5] can be described thus: solubility in aqueous SPR buffers. The data set is classed as physicochemical. As to conditions: simple aqueous solution.
[6] abbreviates: in silico leads retested in duplicate at 5 concentrations 5 to 250 µM.

T2 sequence (P03126 whole entry): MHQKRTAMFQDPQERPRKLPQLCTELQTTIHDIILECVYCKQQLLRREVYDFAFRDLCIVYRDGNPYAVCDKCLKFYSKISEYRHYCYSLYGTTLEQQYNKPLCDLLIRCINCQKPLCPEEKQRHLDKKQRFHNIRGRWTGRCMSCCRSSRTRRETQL
T1 sequence (P03126 whole entry): as above
T3 sequence (P03126 whole entry, the tested form may be a part): as the sequence (P03126 whole entry) above

Regarding `O=c1cc(-c2cccc(C(F)(F)F)c2)oc2ccc(-c3nnn[nH]3)cc12` [CAF25], in data set [1], the IC50 (in general, the concentration that inhibits the measured activity by half) stood at 1.1 µM and the Emax came out at 95%.
In the same order, the values of `O=c1cc(-c2ccccc2)oc2ccc(-c3cccc(-c4nnn[nH]4)c3)cc12` [CAF27] are 6.9 µM and 96%.
With `O=C(O)c1cccc(-c2ccc3oc(-c4cccc(O)c4)cc(=O)c3c2)c1` [CAF28], the Emax in data set [1] was 75%.
Regarding `COc1ccc(-c2ccc3oc(-c4ccccc4)cc(=O)c3c2)c(OC)c1C(=O)O` [CAF29], in data set [1], half-maximal inhibition (IC50) required 12.5 µM and the Emax worked out at 75%.
As to `O=C(O)c1cccc(-c2ccc3c(=O)cc(-c4ccccc4)oc3c2)c1` [CAF30], in data set [1], the IC50 worked out at 47.3 µM and the Emax was found to be 84%.
For `O=C(O)c1cc(-c2ccc3c(=O)cc(-c4ccccc4)oc3c2)ccc1Cl` [CAF31], in data set [1], the midpoint of inhibition, the IC50, lay at 62.2 µM and the Emax was found to be 86%.
The corresponding values for `O=C(O)c1cc(-c2ccc3c(=O)cc(-c4ccccc4)oc3c2)ccc1F` [CAF32] are 48 µM and 75%.
For the molecule `COc1cc(OC)c2c(=O)cc(-c3ccc(OC)c(OC)c3)oc2c1` [CAF-8], the “activity and potency in E6/E6AP binding assay (in words)” value (from here on “activity and potency”) in data set [1] was “no activity”. Moreover, the “effect on E6 mediated p53 degradation” value in data set [2] (10 µM compound pre-incubated with E6) and in data set [2] (100 µM compound pre-incubated with E6) was “did not alter E6 mediated p53 degradation” throughout. The “effect on Tm of MBP-E6” value at MBP-E6 is recorded as “unable to significantly alter MBP-E6 melting temperature; also recorded: no measurable effect”.
On to `COc1cc(O)cc2oc(-c3ccc(O)c(O)c3)cc(=O)c12` [CAF-10], for which the “activity and potency” value in data set [1] was “same potency and activity as luteolin”.
In the case of `O=c1cc(-c2ccc(O)c(O)c2)oc2cccc(O)c12` [CAF-13], the “increase of IC50 relative to luteolin” value in data set [1] was 15-30 fold.
The same measure, in the same setting: the figure for `O=c1cc(-c2ccc(O)cc2)oc2cc(O)cc(O)c12` [CAF-14] is 15-30 fold.
`O=c1cc(-c2ccccc2)oc2ccc(-c3nnn[nH]3)cc12` [CAF-26]: in data set [1], the IC50 came to 5.1 µM and the Emax was determined as 97%. Further, the IC50 entry in data set [1] (full 7-point dose response, 0.5 µM to 333 µM, quadruplicate) is “low micromolar IC50 values”. Further, in data set [3], the “non-specific inhibition / specificity in FLAG-E6AP control assay” value (“non-specific inhibition / specificity” for short) is “increased specificity against the FLAG and hDlg control binding reactions”. The “specificity against hDlg control binding reaction” value in data set [4] was “increased specificity against the FLAG and hDlg control binding reactions”. Besides, the “effect on Tm of MBP-E6” value on MBP-E6 was “about 1 °C”. In addition, the “shift of MBP-E6 Tm” value on MBP-E6 (at 25, 50 and 150 µM) is ~1 °C. Besides, the “aqueous solubility (in words)” value in data set [5] is “limited aqueous solubility”.
In the case of `COc1ccc(CC2c3c(cc(OC)c(O)c3OC)CCN2C)cc1OC` (stereo not shown) [Compound 117], the IC50 result in data set [1] (setting [6]) is given as “low micromolar IC50 values”. Moreover, in data set [3], the “non-specific inhibition / specificity” value is given as “inhibited binding in the FLAG-E6AP assay”.
The corresponding values for `COc1ccc(NC2Oc3cc(O)ccc3C=C2C(=O)Nc2cccc(C)n2)cc1OC` (stereo not shown) [Compound 160] are “low micromolar IC50 values” and “inhibited binding in the FLAG-E6AP assay”.
`CC(=O)Oc1cc(OC(C)=O)c2c(=O)c(OC(C)=O)c(-c3ccc(OC(C)=O)c(OC(C)=O)c3)oc2c1` [Compound 168]: the results for the IC50 in data set [1] and in data set [1] (setting [6]) were 44 µM and “low micromolar IC50 values”, respectively. In addition, the “non-specific inhibition / specificity” value in data set [3] is “some non-specific inhibitory activity”.
Turning to `CC(=O)Oc1cc(OC(C)=O)c2c(=O)cc(-c3ccc(OC(C)=O)c(OC(C)=O)c3)oc2c1` [Compound 170], in data set [1], the IC50 turned out to be 44 µM; the “activity and potency” value was “much lower activity and potency than observed with the initial hit”. In data set [1] (setting [6]), the IC50 result was “low micromolar IC50 values”. Also, the “non-specific inhibition / specificity” value in data set [3] is “more selective inhibitor of the E6-E6AP interaction”.
Turning to `CC[C@H](C)[C@H](N)C(=O)N1CCC[C@H]1C(=O)N[C@@H](CCC(=O)O)C(=O)N[C@@H](CO)C(=O)N[C@@H](CO)C(=O)N[C@@H](CCC(=O)O)C(=O)N[C@@H](CC(C)C)C(=O)N[C@H](C(=O)N[C@@H](CC(C)C)C(=O)N[C@@H](CCC(N)=O)C(=O)N[C@@H](CCC(=O)O)C(=O)N[C@@H](CC(C)C)C(=O)N[C@@H](CC(C)C)C(=O)NCC(=O)N[C@@H](CCC(=O)O)C(=O)N[C@@H](CCC(=O)O)C(=O)N[C@@H](CCCNC(=N)N)C(=O)N[C@@H](CCCNC(=N)N)C(=O)O)[C@@H](C)O` [E6AP 18-mer, reference compound], in data set [1] (read-out: inhibition of binding), the inhibition (commonly the drop in the measured response relative to a control, in per cent) at 100 µM amounted to 95%.
